Measured values reported in PubChem BioAssay (NCI).
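Dose response: 5 concentrations. Exposure: 48 h. Format: 96-well plates. Endpoint: linear interpolation; highest concentration if not reached. The concentration for 50% growth inhibition is given as GI50. TGI is the concentration that stops growth completely.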

How the values were obtained:
Assay in all cases: inhibition of tumour cell growth, NCI panel, 48 h
ACHN renal = system: ACHN renal
M14 melanoma = system: M14 melanoma
MCF7 breast = system: MCF7 breast
DU-145 prostate = system: DU-145 prostate
A549 NSCLC = system: A549 NSCLC
SK-OV-3 ovarian = system: SK-OV-3 ovarian
T-47D breast = system: T-47D breast
OVCAR-5 ovarian = system: OVCAR-5 ovarian
786-0 renal = system: 786-0 renal
PC-3 prostate = system: PC-3 prostate
HT29 colon = system: HT29 colon
OVCAR-8 ovarian = system: OVCAR-8 ovarian
OVCAR-4 ovarian = system: OVCAR-4 ovarian
HCT-116 colon = system: HCT-116 colon
CAKI-1 renal = system: CAKI-1 renal
UACC-62 melanoma = system: UACC-62 melanoma
SK-MEL-28 melanoma = system: SK-MEL-28 melanoma
BT-549 breast = system: BT-549 breast
LOX IMVI melanoma = system: LOX IMVI melanoma
HS 578T breast = system: HS 578T breast
SF-268 CNS = system: SF-268 CNS
KM12 colon = system: KM12 colon
IGROV1 ovarian = system: IGROV1 ovarian
SK-MEL-2 melanoma = system: SK-MEL-2 melanoma
HCT-15 colon = system: HCT-15 colon
MDA-MB-435 = system: MDA-MB-435
NCI-H226 lung = system: NCI-H226 lung
HL-60(TB) leukemia = system: HL-60(TB) leukemia
HCC-2998 colon = system: HCC-2998 colon
SR leukemia = system: SR leukemia
UACC-257 melanoma = system: UACC-257 melanoma
HOP-92 NSCLC = system: HOP-92 NSCLC
NCI-H522 lung = system: NCI-H522 lung
MOLT-4 leukemia = system: MOLT-4 leukemia
SK-MEL-5 melanoma = system: SK-MEL-5 melanoma
SF-295 CNS = system: SF-295 CNS
MDA-MB-231 breast = system: MDA-MB-231 breast
MALME-3M melanoma = system: MALME-3M melanoma
TK-10 renal = system: TK-10 renal
SW-620 colon = system: SW-620 colon
SF-539 CNS = system: SF-539 CNS
COLO 205 colon = system: COLO 205 colon
U251 CNS = system: U251 CNS
A498 renal = system: A498 renal
UO-31 renal = system: UO-31 renal
SNB-19 CNS = system: SNB-19 CNS
NCI/ADR-RES ovarian = system: NCI/ADR-RES ovarian
OVCAR-3 ovarian = system: OVCAR-3 ovarian
NCI-H460 lung = system: NCI-H460 lung
RXF 393 renal = system: RXF 393 renal
SN12C renal = system: SN12C renal
NCI-H23 lung = system: NCI-H23 lung
K-562 leukemia = system: K-562 leukemia
RPMI-8226 leukemia = system: RPMI-8226 leukemia
CCRF-CEM leukemia = system: CCRF-CEM leukemia
HOP-62 NSCLC = system: HOP-62 NSCLC
SNB-75 CNS = system: SNB-75 CNS

Q: What does the source list for `COc1ccc2c(ccc3oc([N+](=O)[O-])cc32)c1`?
A: GI50 (ACHN renal): 27.4 nM; TGI (ACHN renal): 232 nM; GI50 (M14 melanoma): 45.4 nM; TGI (M14 melanoma): 186 nM; GI50 (MCF7 breast): 176 nM; TGI (MCF7 breast): 3000 nM; GI50 (DU-145 prostate): 191 nM; TGI (DU-145 prostate): 1140 nM; GI50 (A549 NSCLC): 274 nM; TGI (A549 NSCLC): 1040 nM; GI50 (SK-OV-3 ovarian): 231 nM; TGI (SK-OV-3 ovarian): 1840 nM; GI50 (T-47D breast): 448 nM; TGI (T-47D breast): 8050 nM; GI50 (OVCAR-5 ovarian): 364 nM; TGI (OVCAR-5 ovarian): 4740 nM; GI50 (786-0 renal): 218 nM; TGI (786-0 renal): 667 nM; GI50 (PC-3 prostate): 305 nM; TGI (PC-3 prostate): 3630 nM; GI50 (HT29 colon): 202 nM; TGI (HT29 colon): 874 nM; GI50 (OVCAR-8 ovarian): 180 nM; TGI (OVCAR-8 ovarian): 1200 nM; GI50 (OVCAR-4 ovarian): 422 nM; TGI (OVCAR-4 ovarian): 2010 nM; GI50 (HCT-116 colon): 48.7 nM; TGI (HCT-116 colon): 920 nM; GI50 (CAKI-1 renal): 128 nM; TGI (CAKI-1 renal): 755 nM; GI50 (UACC-62 melanoma): 158 nM; TGI (UACC-62 melanoma): 333 nM; GI50 (SK-MEL-28 melanoma): 118 nM; TGI (SK-MEL-28 melanoma): 323 nM; GI50 (BT-549 breast): 187 nM; TGI (BT-549 breast): 521 nM; GI50 (LOX IMVI melanoma): 55.1 nM; TGI (LOX IMVI melanoma): 312 nM; GI50 (HS 578T breast): 301 nM; TGI (HS 578T breast): 1580 nM; GI50 (SF-268 CNS): 176 nM; TGI (SF-268 CNS): 1870 nM; GI50 (KM12 colon): 288 nM; TGI (KM12 colon): 1210 nM; GI50 (IGROV1 ovarian): 199 nM; TGI (IGROV1 ovarian): 3470 nM; GI50 (SK-MEL-2 melanoma): 107 nM; TGI (SK-MEL-2 melanoma): 292 nM; GI50 (HCT-15 colon): 221 nM; TGI (HCT-15 colon): 1530 nM; GI50 (MDA-MB-435): 47 nM; TGI (MDA-MB-435): 186 nM; GI50 (NCI-H226 lung): 193 nM; TGI (NCI-H226 lung): 629 nM; GI50 (HL-60(TB) leukemia): 51.4 nM; TGI (HL-60(TB) leukemia): 487 nM; GI50 (HCC-2998 colon): 177 nM; TGI (HCC-2998 colon): 418 nM; GI50 (SR leukemia): 74.8 nM; TGI (SR leukemia): 17600 nM; GI50 (UACC-257 melanoma): 137 nM; TGI (UACC-257 melanoma): 430 nM; GI50 (HOP-92 NSCLC): 129 nM; TGI (HOP-92 NSCLC): 407 nM; GI50 (NCI-H522 lung): 95.2 nM; TGI (NCI-H522 lung): 319 nM; GI50 (MOLT-4 leukemia): 37.8 nM; TGI (MOLT-4 leukemia): 2690 nM; GI50 (SK-MEL-5 melanoma): 41.3 nM; TGI (SK-MEL-5 melanoma): 142 nM; GI50 (SF-295 CNS): 302 nM; TGI (SF-295 CNS): 1900 nM; GI50 (MDA-MB-231 breast): 167 nM; TGI (MDA-MB-231 breast): 596 nM; GI50 (MALME-3M melanoma): 137 nM; TGI (MALME-3M melanoma): 314 nM; GI50 (TK-10 renal): 278 nM; TGI (TK-10 renal): 854 nM; GI50 (SW-620 colon): 178 nM; TGI (SW-620 colon): 10800 nM; GI50 (SF-539 CNS): 225 nM; TGI (SF-539 CNS): 595 nM; GI50 (COLO 205 colon): 172 nM; TGI (COLO 205 colon): 389 nM; GI50 (U251 CNS): 197 nM; TGI (U251 CNS): 578 nM; GI50 (A498 renal): 85.2 nM; TGI (A498 renal): 305 nM; GI50 (UO-31 renal): 224 nM; TGI (UO-31 renal): 763 nM; GI50 (SNB-19 CNS): 294 nM; TGI (SNB-19 CNS): 2960 nM; GI50 (NCI/ADR-RES ovarian): 177 nM; TGI (NCI/ADR-RES ovarian): 1050 nM; GI50 (OVCAR-3 ovarian): 225 nM; TGI (OVCAR-3 ovarian): 570 nM; GI50 (NCI-H460 lung): 181 nM; TGI (NCI-H460 lung): 850 nM; GI50 (RXF 393 renal): 70.2 nM; TGI (RXF 393 renal): 223 nM; GI50 (SN12C renal): 274 nM; TGI (SN12C renal): 7030 nM; GI50 (NCI-H23 lung): 203 nM; TGI (NCI-H23 lung): 605 nM; GI50 (K-562 leukemia): 64.7 nM; TGI (K-562 leukemia): 6140 nM; GI50 (RPMI-8226 leukemia): 247 nM; TGI (RPMI-8226 leukemia): 810 nM; GI50 (CCRF-CEM leukemia): 90 nM; TGI (CCRF-CEM leukemia): > 40700 nM; GI50 (HOP-62 NSCLC): 412 nM; TGI (HOP-62 NSCLC): 2480 nM; GI50 (SNB-75 CNS): 201 nM; TGI (SNB-75 CNS): 573 nM
